Test results taken from patent publication US20180055032A1, “ODORS FOR PSYLLID TRAPPING, REPELLING AND CONTROL” (The Regents of the University of California, priority 2011, published 2018).
Like-named read-outs stand apart in the source and are kept apart here.

Key:
Assay type in all cases: cell-based, Diaphorina citri
[1] = tested on: neuron 2A (rhinarial plate on flagellomere 2); assay: single-sensillum electrophysiology, odor response of neuron 2A; settings: for response to inhibitory odors, 2A: Table 2, odor diluted to 10^−2, 50 μL in cartridge; for odor response (frequency of action potentials during stimulus minus baseline), 2A: Table 1, odor diluted to 1%, 50 μL in cartridge; on all read-outs here: key: 0, no response; +, >50 spikes/second; ++, >100 spikes/second; +++, >150 spikes/second
[2] = tested on: neuron 2C (rhinarial plate on flagellomere 2); assay: single-sensillum electrophysiology, odor response of neuron 2C; settings: for response to inhibitory odors, 2C: Table 2, odor diluted to 10^−2, 50 μL in cartridge; for odor response (frequency of action potentials during stimulus minus baseline), 2C: Table 1, odor diluted to 1%, 50 μL in cartridge; on response to inhibitory odors, 2C: key: 0, no response; +, >50 spikes/second; ++, >100 spikes/second; +++, >150 spikes/second
[3] = tested on: neuron 4A (rhinarial plate on flagellomere 4); assay: single-sensillum electrophysiology, odor response of neuron 4A; settings: for response to inhibitory odors, 4A: Table 2, odor diluted to 10^−2, 50 μL in cartridge; for odor response (frequency of action potentials during stimulus minus baseline), 4A: Table 1, odor diluted to 1%, 50 μL in cartridge
[4] = tested on: neuron 4B (rhinarial plate on flagellomere 4); settings: for odor response (frequency of action potentials during stimulus minus baseline), 4B: Table 1, odor diluted to 1%, 50 μL in cartridge
[5] = tested on: neuron 4C (rhinarial plate on flagellomere 4); assay: single-sensillum electrophysiology, odor response of neuron 4C; settings: Table 2; odor diluted to 10^−2, 50 μL in cartridge; further: key: 0, no response; +, >50 spikes/second; ++, >100 spikes/second; +++, >150 spikes/second
[6] = tested on: neuron 6A (rhinarial plate on flagellomere 6); assay: single-sensillum electrophysiology, odor response of neuron 6A; settings: for response to inhibitory odors, 6A: Table 2, odor diluted to 10^−2, 50 μL in cartridge; for odor response (frequency of action potentials during stimulus minus baseline), 6A: Table 1, odor diluted to 1%, 50 μL in cartridge
[7] = tested on: neuron 6B (rhinarial plate on flagellomere 6); assay: single-sensillum electrophysiology, odor response of neuron 6B; settings: for response to inhibitory odors, 6B: Table 2, odor diluted to 10^−2, 50 μL in cartridge; for odor response (frequency of action potentials during stimulus minus baseline), 6B: Table 1, odor diluted to 1%, 50 μL in cartridge
[8] = tested on: neuron 6C (rhinarial plate on flagellomere 6); assay: single-sensillum electrophysiology, odor response of neuron 6C; settings: for response to inhibitory odors, 6C: Table 2, odor diluted to 10^−2, 50 μL in cartridge; for odor response (frequency of action potentials during stimulus minus baseline), 6C: Table 1, odor diluted to 1%, 50 μL in cartridge
[9] = tested on: neuron 7A (rhinarial plate on flagellomere 7); assay: single-sensillum electrophysiology, odor response of neuron 7A; settings: for response to inhibitory odors, 7A: Table 2, odor diluted to 10^−2, 50 μL in cartridge; for odor response (frequency of action potentials during stimulus minus baseline), 7A: Table 1, odor diluted to 1%, 50 μL in cartridge; on all read-outs here: key: 0, no response; +, >50 spikes/second; ++, >100 spikes/second; +++, >150 spikes/second
[10] = tested on: neuron 7B (rhinarial plate on flagellomere 7); settings: for odor response (frequency of action potentials during stimulus minus baseline), 7B: Table 1, odor diluted to 1%, 50 μL in cartridge
[11] = tested on: neuron 7C (rhinarial plate on flagellomere 7); assay: single-sensillum electrophysiology, odor response of neuron 7C; settings: for response to inhibitory odors, 7C: Table 2, odor diluted to 10^−2, 50 μL in cartridge; for odor response (frequency of action potentials during stimulus minus baseline), 7C: Table 1, odor diluted to 1%, 50 μL in cartridge
[12] = tested on: neuron 2B (rhinarial plate on flagellomere 2); assay: single-sensillum electrophysiology, odor response of neuron 2B; settings: for odor response (frequency of action potentials during stimulus minus baseline), 2B: Table 1, odor diluted to 1%, 50 μL in cartridge; for response to inhibitory odors, 2B: Table 2, odor diluted to 10^−2, 50 μL in cartridge
[13] = Table 2, odor diluted to 10^−2, 50 μL in cartridge

SMILES	response to inhibitory odors, 2A [1]	response to inhibitory odors, 2C [2]	response to inhibitory odors, 4A [3]	response to inhibitory odors, 4B [4, 13]	response to inhibitory odors, 4C [5]	response to inhibitory odors, 6A [6]	response to inhibitory odors, 6B [7]	response to inhibitory odors, 6C [8]	response to inhibitory odors, 7A [9]	response to inhibitory odors, 7B [10, 13]	response to inhibitory odors, 7C [11]	response to inhibitory odors, 2B [12]	other results
CC(=O)C(C)=O [2,3-butanedione]	0	0	0	0	0	0	0	0	0	0	0		
CC1=CC[C@H]2C[C@@H]1C2(C)C [(−)-α-pinene]													odor response (frequency of action potentials during stimulus minus baseline), 2A [1]: 0; odor response (frequency of action potentials during stimulus minus baseline), 2B [12]: 0; odor response (frequency of action potentials during stimulus minus baseline), 2C [2]: 0; odor response (frequency of action potentials during stimulus minus baseline), 4A [3]: 0; odor response (frequency of action potentials during stimulus minus baseline), 4B [4]: + (+, >50 spikes/second); odor response (frequency of action potentials during stimulus minus baseline), 6A [6]: 0; odor response (frequency of action potentials during stimulus minus baseline), 6B [7]: + (+, >50 spikes/second); odor response (frequency of action potentials during stimulus minus baseline), 6C [8]: 0; odor response (frequency of action potentials during stimulus minus baseline), 7A [9]: 0; odor response (frequency of action potentials during stimulus minus baseline), 7B [10]: 0; odor response (frequency of action potentials during stimulus minus baseline), 7C [11]: 0
C=C1CC[C@H]2C[C@@H]1C2(C)C [(−)-β-pinene]													odor response (frequency of action potentials during stimulus minus baseline), 2A [1]: 0; odor response (frequency of action potentials during stimulus minus baseline), 2B [12]: 0; odor response (frequency of action potentials during stimulus minus baseline), 2C [2]: 0; odor response (frequency of action potentials during stimulus minus baseline), 4A [3]: 0; odor response (frequency of action potentials during stimulus minus baseline), 4B [4]: + (+, >50 spikes/second); odor response (frequency of action potentials during stimulus minus baseline), 6A [6]: 0; odor response (frequency of action potentials during stimulus minus baseline), 6B [7]: + (+, >50 spikes/second); odor response (frequency of action potentials during stimulus minus baseline), 6C [8]: 0; odor response (frequency of action potentials during stimulus minus baseline), 7A [9]: 0; odor response (frequency of action potentials during stimulus minus baseline), 7B [10]: 0; odor response (frequency of action potentials during stimulus minus baseline), 7C [11]: 0
CN1CCCCC1 [N-methylpiperidine]	0	0	0	0	0	0	0	0	0	0		0	
CC(=O)O [acetic acid]	0	0	0		0	0		0	0			0	response to inhibitory odors, 7B [10]: 0
CNC [dimethyl amine]	0	0	0		0	0	0		0			0	response to inhibitory odors, 4B [4]: 0; response to inhibitory odors, 7B [10]: 0
CCCCCC(=O)OCC [ethyl hexanoate]	0	0	0	0	0	0	0	0	0	0		0	
CCCCCCN [hexylamine]	0	0	0	0		0	0	0	0	0	0	0	
CC(C)C(=O)O [isobutyric acid]	0	0	0			0	0		0	0	0	0	
CCCCCCCCOC(C)=O [n-octyl acetate]	0	0	0		0	0	0	0	0	0	0	0	
CCCCCN [pentylamine]	0	0	0	0		0	0	0	0	0	0		
CCC(=O)O [propionic acid]	0	0	0		0	0		0	0	0	0	0	
Cl.Cl.NCCCCN [putrescine dihydrochloride]	0	0	0		0	0	0	0	0		0		response to inhibitory odors, 4B [4]: 0; response to inhibitory odors, 7B [10]: 0
c1ccncc1 [pyridine]	0	0	0			0	0	0	0		0	0	response to inhibitory odors, 4B [4]: 0; response to inhibitory odors, 7B [10]: 0
CC1CC(=O)O1 (stereo not drawn) [β-butyrolactone]	0	0	0		0	0	0	0	0	0	0	0	
